In patent US9409914B2, “Triazolo[4,5-d]pyrimidine derivatives” (Merck Patent GmbH, priority 2012, dated 2016):

Target: GCN2 (Homo sapiens, UniProt Q9P2K8)
Assay: GCN2 enzyme assay (TR-FRET Lanthascreen, phosphorylation of GFP-eIF2alpha)
Type: biochemical
Settings: 10 μM ATP, 80 nM GFP-eIF2alpha, 30 nM GCN2, room temperature
Text: GCN2: Assay principle & conditions
This assay can quantificate the activity of the serin kinase GCN2 (general control non-derepressible-2).
This kinase is involved in the stress metabolism of cells. It is activated upon starvation (amino acid depletion). Its natural substrate is eIF2a (eukaryotic initiation factor 2 alpha subunit), a translation factor, which gets activated (phosphorylated) by GCN2 in case of an amino acid bottleneck in the cells. This in turn leads to a halt of the protein synthesis. Inhibition of GCN2 results in stopping this mechanism: The cell can not stop protein production upon “starvation” stress.
The assay is run in two steps: the enzymatic reaction and the detection step. In the first step GCN2 is incubated with 10 μM ATP and 80 nM of the GFP-labelled substrate eIF2alpha at room temperature.
The enzymatic reaction is stopped by addition of EDTA. The amount of phosphorylated eIF2alpha is determined by TR-FRET (Lanthascreen): A complex is formed consisting of antibody and GFP labelled phospho-eIF2a, which allows a FRET upon exitation at 340 nm.
The GCN2-activity is directly proportional to the ratio of fluorescence units at the emission wavelengthh 520 nm (phosphopeptide-sensitive wavelength=emission of GFP) to the units at 495 nm (reference wavelength=emission of Terbium-chelate).
Final Concentrations in the Enzymatic Reaction

Sequence of GCN2 (Q9P2K8 whole entry, species assumed): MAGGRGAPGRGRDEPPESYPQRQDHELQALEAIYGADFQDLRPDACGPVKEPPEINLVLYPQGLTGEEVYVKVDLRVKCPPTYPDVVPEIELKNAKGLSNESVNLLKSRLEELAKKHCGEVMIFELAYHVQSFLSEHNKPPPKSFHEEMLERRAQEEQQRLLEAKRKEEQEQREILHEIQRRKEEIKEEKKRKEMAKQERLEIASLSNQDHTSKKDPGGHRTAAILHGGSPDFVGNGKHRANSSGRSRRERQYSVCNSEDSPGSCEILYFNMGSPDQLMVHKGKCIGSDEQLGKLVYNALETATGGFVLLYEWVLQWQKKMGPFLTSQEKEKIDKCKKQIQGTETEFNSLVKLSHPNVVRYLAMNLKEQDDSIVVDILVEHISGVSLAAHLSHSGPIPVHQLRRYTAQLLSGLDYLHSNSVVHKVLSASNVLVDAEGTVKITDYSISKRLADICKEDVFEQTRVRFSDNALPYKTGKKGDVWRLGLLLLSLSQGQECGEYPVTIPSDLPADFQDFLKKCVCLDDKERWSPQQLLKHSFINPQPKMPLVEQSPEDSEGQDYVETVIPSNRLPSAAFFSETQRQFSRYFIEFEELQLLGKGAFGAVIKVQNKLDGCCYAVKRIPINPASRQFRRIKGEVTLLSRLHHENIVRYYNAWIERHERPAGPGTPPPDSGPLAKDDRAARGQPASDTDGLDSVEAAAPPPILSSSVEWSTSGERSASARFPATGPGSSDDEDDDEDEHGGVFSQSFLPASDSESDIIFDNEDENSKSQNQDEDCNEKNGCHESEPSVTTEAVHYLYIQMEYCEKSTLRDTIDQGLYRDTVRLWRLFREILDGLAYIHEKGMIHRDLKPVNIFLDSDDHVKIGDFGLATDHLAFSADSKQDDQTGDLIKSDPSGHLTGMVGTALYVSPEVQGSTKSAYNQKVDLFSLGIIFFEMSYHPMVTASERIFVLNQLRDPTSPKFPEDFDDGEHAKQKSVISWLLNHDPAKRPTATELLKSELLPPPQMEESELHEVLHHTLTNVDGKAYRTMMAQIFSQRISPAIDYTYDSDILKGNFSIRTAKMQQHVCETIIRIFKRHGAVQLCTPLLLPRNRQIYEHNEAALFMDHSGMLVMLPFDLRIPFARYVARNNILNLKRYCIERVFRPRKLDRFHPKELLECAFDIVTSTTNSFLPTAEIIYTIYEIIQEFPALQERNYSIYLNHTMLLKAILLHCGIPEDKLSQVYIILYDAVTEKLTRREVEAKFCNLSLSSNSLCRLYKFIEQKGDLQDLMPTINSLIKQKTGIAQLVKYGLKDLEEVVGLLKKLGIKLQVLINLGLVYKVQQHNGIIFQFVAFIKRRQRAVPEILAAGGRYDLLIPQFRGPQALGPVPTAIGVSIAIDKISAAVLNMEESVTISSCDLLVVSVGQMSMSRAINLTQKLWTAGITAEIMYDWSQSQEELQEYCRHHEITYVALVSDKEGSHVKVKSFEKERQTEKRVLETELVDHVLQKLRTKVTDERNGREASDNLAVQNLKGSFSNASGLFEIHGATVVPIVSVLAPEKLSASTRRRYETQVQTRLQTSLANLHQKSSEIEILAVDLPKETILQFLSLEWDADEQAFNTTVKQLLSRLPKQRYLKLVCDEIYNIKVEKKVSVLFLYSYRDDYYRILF

Row | IC50 [µM] | Compound
1 | < 0.3 | CCn1cc(Nc2ncc3nnn(-c4ccc(NC(C)=O)nc4)c3n2)cn1 [Compound A58, N-{5-[5-(1-ethyl-1H-pyrazol-4-ylamino)-[1,2,3]triazolo[4,5-d]pyrimidin-3-yl]-pyridin-2-yl}-acetamide]
2 | < 0.3 | CCn1cc(Nc2ncc3nnn(-c4cnc5ccccc5c4)c3n2)cn1 [Compound A61, (1-ethyl-1H-pyrazol-4-yl)-(3-quinolin-3-yl-3H-[1,2,3]triazolo[4,5-d]pyrimidin-5-yl)-amine]
3 | < 0.3 | CCn1cc(Nc2ncc3nnn(-c4ccnc(OC)c4)c3n2)cn1 [Compound A62, (1-ethyl-1H-pyrazol-4-yl)-[3-(2-methoxy-pyridin-4-yl)-3H-[1,2,3]triazolo[4,5-d]pyrimidin-5-yl]-amine]
4 | < 0.3 | CCn1cc(Nc2ncc3nnn(-c4ccc(F)cc4)c3n2)cn1 [Compound A63, (1-ethyl-1H-pyrazol-4-yl)-[3-(4-fluoro-phenyl)-3H-[1,2,3]triazolo[4,5-d]pyrimidin-5-yl]-amine]
5 | < 0.3 | CCOc1ccc(-n2nnc3cnc(Nc4cnn(-c5ccccc5)c4)nc32)cc1 [Compound A64, [3-(4-ethoxy-phenyl)-3H-[1,2,3]triazolo[4,5-d]pyrimidin-5-yl]-(1-phenyl-1H-pyrazol-4-yl)-amine]
6 | < 0.3 | CCn1cc(Nc2ncc3nnn(-c4ccc(O)cc4)c3n2)cn1 [Compound A66, 4-[5-(1-ethyl-1H-pyrazol-4-ylamino)-[1,2,3]triazolo[4,5-d]pyrimidin-3-yl]-phenol]
7 | 0.3 to 3 | CCn1cc(Nc2ncc3nnn(-c4ccc(F)cc4C#N)c3n2)cn1 [Compound A72, 2-[5-(1-ethyl-1H-pyrazol-4-ylamino)-[1,2,3]triazolo[4,5-d]pyrimidin-3-yl]-5-fluoro-benzonitrile]
8 | 0.3 to 3 | CN1CCC(n2cc(Nc3ncc4nnn(-c5ccc(F)cc5C#N)c4n3)cn2)CC1 [Compound A74, 5-fluoro-2-{5-[1-(1-methyl-piperidin-4-yl)-1H-pyrazol-4-ylamino]-[1,2,3]triazolo[4,5-d]pyrimidin-3-yl}-benzonitrile]
9 | < 0.3 | COc1cc(-n2nnc3cnc(Nc4cnn(C5CCOCC5)c4)nc32)ccn1 [Compound A78, [3-(2-methoxy-pyridin-4-yl)-3H-[1,2,3]triazolo[4,5-d]pyrimidin-5-yl]-[1-(tetrahydro-pyran-4-yl)-1H-pyrazol-4-yl]-amine]
10 | < 0.3 | c1cnc2cc(-n3nnc4cnc(Nc5cnn(C6CCOCC6)c5)nc43)ccc2c1 [Compound A86, (3-quinolin-7-yl-3H-[1,2,3]triazolo[4,5-d]pyrimidin-5-yl)-[1-(tetrahydro-pyran-4-yl)-1H-pyrazol-4-yl]-amine]
11 | < 0.3 | CCOc1ccc(-n2nnc3cnc(Nc4cnn(CCC(C)C)c4)nc32)cc1 [Compound A88, [3-(4-ethoxy-phenyl)-3H-[1,2,3]triazolo[4,5-d]pyrimidin-5-yl]-[1-(3-methyl-butyl)-1H-pyrazol-4-yl]-amine]
12 | < 0.3 | CCn1cc(-n2nnc3cnc(Nc4cnn(CCC(C)C)c4)nc32)cn1 [Compound A89, [3-(1-ethyl-1H-pyrazol-4-yl)-3H-[1,2,3]triazolo[4,5-d]pyrimidin-5-yl]-[1-(3-methyl-butyl)-1H-pyrazol-4-yl]-amine]
13 | < 0.3 | CC(C)CCn1cc(Nc2ncc3nnn(-c4ccc5ncccc5c4)c3n2)cn1 [Compound A90, [1-(3-methyl-butyl)-1H-pyrazol-4-yl]-(3-quinolin-6-yl-3H-[1,2,3]triazolo[4,5-d]pyrimidin-5-yl)-amine]
14 | < 0.3 | c1cnc2cc(-n3nnc4cnc(Nc5cnn(C6CCOCC6)c5)nc43)ccc2n1 [Compound A94, (3-quinoxalin-6-yl-3H-[1,2,3]triazolo[4,5-d]pyrimidin-5-yl)-[1-(tetrahydro-pyran-4-yl)-1H-pyrazol-4-yl]-amine]
15 | 0.3 to 3 | O[C@H]1CC[C@@H](n2cc(Nc3ncc4nnn(-c5ccc(Cl)c(F)c5)c4n3)cn2)CC1 [Compound A102, 4-{4-[3-(4-chloro-3-fluoro-phenyl)-3H-[1,2,3]triazolo[4,5-d]pyrimidin-5-ylamino]-pyrazol-1-yl}-cyclohexanol]
16 | < 0.3 | O[C@H]1CC[C@@H](n2cc(Nc3ncc4nnn(-c5ccc6nccnc6c5)c4n3)cn2)CC1 [Compound A105, 4-[4-(3-quinoxalin-6-yl-3H-[1,2,3]triazolo[4,5-d]pyrimidin-5-ylamino)-pyrazol-1-yl]-cyclohexanol]

Row | IC50 [µM] | Compound
17 | 0.3 to 3 | COc1ccc(-n2nnc3cnc(Nc4cnn([C@H]5CC[C@H](O)CC5)c4)nc32)cn1 [Compound A109, 4-{4-[3-(6-methoxy-pyridin-3-yl)-3H-[1,2,3]triazolo[4,5-d]pyrimidin-5-ylamino]-pyrazol-1-yl}-cyclohexanol]
18 | 0.3 to 3 | Fc1ccc(-n2nnc3cnc(Nc4cnn(C5CCOCC5)c4)nc32)cc1Cl [Compound A110, [3-(3-chloro-4-fluoro-phenyl)-3H-[1,2,3]triazolo[4,5-d]pyrimidin-5-yl]-[1-(tetrahydro-pyran-4-yl)-1H-pyrazol-4-yl]-amine]
19 | 0.3 to 3 | c1cnc2cc(-n3nnc4cnc(Nc5cnn(C6COC6)c5)nc43)ccc2c1 [Compound A112, (1-oxetan-3-yl-1H-pyrazol-4-yl)-(3-quinolin-7-yl-3H-[1,2,3]triazolo[4,5-d]pyrimidin-5-yl)-amine]
20 | < 0.3 | COC(=O)c1ccc(-n2nnc3cnc(Nc4cnn(C5CCOCC5)c4)nc32)cc1 [Compound A113, 4-{5-[1-(tetrahydro-pyran-4-yl)-1H-pyrazol-4-ylamino]-[1,2,3]triazolo[4,5-d]pyrimidin-3-yl}-benzoic acid methyl ester]
21 | 0.3 to 3 | Fc1cc(-n2nnc3cnc(Nc4cnn(CCN5CCOCC5)c4)nc32)ccc1Cl [Compound A114, [3-(4-chloro-3-fluoro-phenyl)-3H-[1,2,3]triazolo[4,5-d]pyrimidin-5-yl]-[1-(2-morpholin-4-yl-ethyl)-1H-pyrazol-4-yl]-amine]
22 | 0.3 to 3 | Fc1ccc(-n2nnc3cnc(Nc4cnn(C5CCOCC5)c4)nc32)cc1F [Compound A116, [3-(3,4-difluoro-phenyl)-3H-[1,2,3]triazolo[4,5-d]pyrimidin-5-yl]-[1-(tetrahydro-pyran-4-yl)-1H-pyrazol-4-yl]-amine]
23 | < 0.3 | Fc1cccc(-n2nnc3cnc(Nc4cnn(CCCC5CCNCC5)c4)nc32)c1 [Compound A129, [3-(3-fluoro-phenyl)-3H-[1,2,3]triazolo[4,5-d]pyrimidin-5-yl]-[1-(3-piperidin-4-yl-propyl)-1H-pyrazol-4-yl]-amine]
24 | < 0.3 | O=S(=O)(c1ccc(-n2nnc3cnc(Nc4cnn(CCn5cccn5)c4)nc32)cc1)N1CCCC1 [Compound A133, [1-(2-pyrazol-1-yl-ethyl)-1H-pyrazol-4-yl]-{3-[4-(pyrrolidine-1-sulfonyl)-phenyl]-3H-[1,2,3]triazolo[4,5-d]-pyrimidin-5-yl}-amine]
25 | 0.3 to 3 | c1cnc2cc(-n3nnc4cnc(Nc5cnn(CCn6cccn6)c5)nc43)ccc2c1 [Compound A134, [1-(2-pyrazol-1-yl-ethyl)-1H-pyrazol-4-yl]-(3-quinolin-7-yl-3H-[1,2,3]triazolo[4,5-d]pyrimidin-5-yl)-amine]
26 | < 0.3 | NS(=O)(=O)c1ccc(-n2nnc3cnc(Nc4cnn(CCn5cccn5)c4)nc32)cc1 [Compound A135, 4-{5-[1-(2-pyrazol-1-yl-ethyl)-1H-pyrazol-4-ylamino]-[1,2,3]triazolo[4,5-d]pyrimidin-3-yl)-benzenesulfonamide]
27 | 0.3 to 3 | CN1CCC(n2cc(Nc3ncc4nnn(-c5ccc(S(=O)(=O)N6CCCC6)cc5)c4n3)cn2)CC1 [Compound A136, [1-(1-methyl-piperidin-4-yl)-1H-pyrazol-4-yl]-{3-[4-(pyrrolidine-1-sulfonyl)-phenyl]-3H-[1,2,3]triazolo[4,5-d]pyrimidin-5-yl}-amine]
28 | 0.3 to 3 | COc1ccc(-n2nnc3cnc(Nc4cnn([C@H]5CC[C@@H](O)CC5)c4)nc32)cn1 [Compound A137, 4-{4-[3-(6-methoxy-pyridin-3-yl)-3H-[1,2,3]triazolo[4,5-d]pyrimidin-5-ylamino]-pyrazol-1-yl}-cyclohexanol]
29 | < 0.3 | COc1ccc(-n2nnc3cnc(Nc4cnn(N5CCOCC5=O)c4)nc32)cc1 [Compound A138, 4-{4-[3-(4-methoxy-phenyl)-3H-[1,2,3]triazolo[4,5-d]pyrimidin-5-ylamino]-pyrazol-1-yl}-morpholin-3-one]
30 | 0.3 to 3 | CN1CCC(n2cc(Nc3ncc4nnn(-c5ccn(C)n5)c4n3)cn2)CC1 [Compound A139, [1-(1-methyl-piperidin-4-yl)-1H-pyrazol-4-yl]-[3-(1-methyl-1H-pyrazol-3-yl)-3H-[1,2,3]triazolo[4,5-d]pyrimidin-5-yl]-amine]
31 | 0.3 to 3 | CCOc1ccc(-n2nnc3cnc(Nc4cc(-c5cnn(C)c5C)n[nH]4)nc32)cc1 [Compound A140, (1′,5′-dimethyl-1H,1′H-[3,4′]bipyrazolyl-5-yl)-[3-(4-ethoxy-phenyl)-3H-[1,2,3]triazolo[4,5-d]pyrimidin-5-yl]-amine]

Row | Compound | IC50 [µM]
32 | CCCCOc1ccc(-n2nnc3cnc(Nc4cnn(CC)c4)nc32)cn1 [Compound A57, [3-(6-butoxy-pyridin-3-yl)-3H-[1,2,3]triazolo[4,5-d]-pyrimidin-5-yl]-(1-ethyl-1H-pyrazol-4-yl)-amine] | 0.3 to 3
